Assay results reported in patent US10464911B2, “1,3,4-oxadiazole sulfamide derivative compounds as histone deacetylase 6 inhibitor, and the pharmaceutical composition comprising the same” (Chong Kun Dang Pharmaceutical Corp., priority 2015, dated 2019).

Assays:
[1] = target: human recombinant HDAC6 (Homo sapiens (Human), UniProt Q9UBN7); assay: HDAC6 enzyme activity inhibition assay (HDAC Fluorimetric Drug Discovery Kit); format: biochemical; details: for HDAC6 selectivity (fold): HDAC6 versus HDAC1; for IC50: human recombinant HDAC6, same protocol as HDAC1 test
human recombinant HDAC6, sequence (Q9UBN7 whole entry): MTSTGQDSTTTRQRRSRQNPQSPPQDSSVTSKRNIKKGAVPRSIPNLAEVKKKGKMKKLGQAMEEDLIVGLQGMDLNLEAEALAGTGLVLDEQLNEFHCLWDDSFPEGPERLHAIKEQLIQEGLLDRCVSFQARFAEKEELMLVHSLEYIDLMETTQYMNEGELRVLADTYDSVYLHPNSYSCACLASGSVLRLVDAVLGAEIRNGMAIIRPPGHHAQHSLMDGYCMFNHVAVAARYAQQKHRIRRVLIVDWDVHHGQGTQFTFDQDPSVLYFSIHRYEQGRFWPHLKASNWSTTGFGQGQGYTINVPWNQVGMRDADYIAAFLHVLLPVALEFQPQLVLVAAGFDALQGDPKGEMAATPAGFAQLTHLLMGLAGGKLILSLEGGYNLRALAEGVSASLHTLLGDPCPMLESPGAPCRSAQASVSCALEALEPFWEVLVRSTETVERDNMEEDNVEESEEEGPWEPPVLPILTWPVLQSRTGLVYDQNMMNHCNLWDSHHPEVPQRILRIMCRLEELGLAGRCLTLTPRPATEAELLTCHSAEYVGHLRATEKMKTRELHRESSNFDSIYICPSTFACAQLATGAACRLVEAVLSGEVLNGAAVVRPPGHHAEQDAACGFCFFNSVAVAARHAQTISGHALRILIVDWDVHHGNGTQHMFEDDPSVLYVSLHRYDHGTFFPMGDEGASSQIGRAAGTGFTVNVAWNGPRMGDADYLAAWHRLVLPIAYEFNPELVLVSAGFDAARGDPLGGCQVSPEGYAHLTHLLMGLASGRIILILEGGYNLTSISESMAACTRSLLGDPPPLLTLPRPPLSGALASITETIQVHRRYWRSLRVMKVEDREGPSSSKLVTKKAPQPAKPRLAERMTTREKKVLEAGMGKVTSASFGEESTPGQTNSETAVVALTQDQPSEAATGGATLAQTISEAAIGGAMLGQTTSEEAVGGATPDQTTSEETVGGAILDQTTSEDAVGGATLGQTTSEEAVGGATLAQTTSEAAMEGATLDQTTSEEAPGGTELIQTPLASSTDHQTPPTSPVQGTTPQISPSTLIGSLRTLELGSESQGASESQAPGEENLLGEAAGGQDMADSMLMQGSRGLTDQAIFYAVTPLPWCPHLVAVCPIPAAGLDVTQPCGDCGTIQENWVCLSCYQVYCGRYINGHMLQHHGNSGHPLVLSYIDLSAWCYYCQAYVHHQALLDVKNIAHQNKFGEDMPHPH
Description: (§1) In order to examine the HDAC6 selectivity of the compounds of formula I of the present invention by HDAC1 and HDAC6 enzymatic activity inhibition assays, an experiment was performed using a conventional substance as a control.
(§2) HDAC enzyme activity was measured using a HDAC Fluorimetric Drug Discovery Kit (BML-AK511, 516, Enzo Life Science). For the HDAC1 enzyme activity test, human recombinant HDAC1 (BML-SE456) was used as an enzyme source, and Fluor de Lys®-“SIRT1 (BNL-KI177) was used as a substrate. A 5-fold dilution of the compound was seeded into a 96-well plate, and then 0.3 μg of the enzyme and 10 μM of the substrate were added to each well of the plate and allowed to react at 30 for 60 minutes. Then, Fluor de Lys®-Developer II (BML-KI176) was added thereto and allowed to react for 30 minutes, after which the fluorescence value (Ex 360, Em 460) was measured using a multi-plate reader (Flexstation 3, Molecular Device). The HDAC6 enzyme was tested using human recombinant HDAC6 (382180) (Calbiochem) according to the same protocol as the HDAC1 enzyme activity test method. Based on the resulting values, each IC50 value was calculated using GraphPad Prism4.0 program.

[2] = target: human recombinant HDAC1 (Homo sapiens (Human), UniProt Q13547); assay: HDAC1 enzyme activity inhibition assay (HDAC Fluorimetric Drug Discovery Kit); format: biochemical; details: human recombinant HDAC1, Fluor de Lys substrate 10 μM, 60 minutes
human recombinant HDAC1, sequence (Q13547 whole entry): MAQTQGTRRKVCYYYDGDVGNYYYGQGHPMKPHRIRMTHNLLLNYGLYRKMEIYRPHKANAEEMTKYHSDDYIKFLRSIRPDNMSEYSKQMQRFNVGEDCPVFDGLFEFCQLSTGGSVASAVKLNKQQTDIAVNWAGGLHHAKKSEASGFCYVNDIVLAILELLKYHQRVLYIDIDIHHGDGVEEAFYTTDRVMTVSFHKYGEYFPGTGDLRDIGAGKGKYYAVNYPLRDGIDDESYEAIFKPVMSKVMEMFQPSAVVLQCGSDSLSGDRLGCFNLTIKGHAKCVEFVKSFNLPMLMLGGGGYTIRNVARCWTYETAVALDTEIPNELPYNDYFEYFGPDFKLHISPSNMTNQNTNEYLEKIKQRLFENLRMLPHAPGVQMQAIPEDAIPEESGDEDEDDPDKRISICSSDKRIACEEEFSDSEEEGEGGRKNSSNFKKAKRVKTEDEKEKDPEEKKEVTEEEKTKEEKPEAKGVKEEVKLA
Description: as §1, §2

Row | SMILES | HDAC6 selectivity (fold) [1] [fold] | IC50 [1] [nM] | IC50 [2] [nM]
1 | Cl.O=S(=O)(N1CCNCC1)N(Cc1ccc(-c2nnc(C(F)(F)F)o2)cc1F)c1ccccc1 [Compound 11293, N-(2-fluoro-4-(5-(trifluoromethyl)-1,3,4-oxadiazol-2-yl)benzyl)-N-phenylpiperazine-1-sulfonamide Hydrochloride] | 1156 | 66 | 76000
2 | Cl.O=S(=O)(N1CCNCC1)N(Cc1ccc(-c2nnc(C(F)(F)F)o2)cc1F)c1cccc(F)c1 [Compound 11309, N-(2-fluoro-4-(5-(trifluoromethyl)-1,3,4-oxadiazol-2-yl)benzyl)-N-(3-fluorophenyl)piperazine-1-sulfonamide Hydrochloride] | 710 | 58 | 41500
3 | O=S1(=O)CCN(S(=O)(=O)N(Cc2ccc(-c3nnc(C(F)F)o3)cn2)c2ccc(F)c(Cl)c2)CC1 [Compound 11498, N-(3-chloro-4-fluorophenyl)-N-((5-(5-(difluoromethyl)-1,3,4-oxadiazol-2-yl)pyridin-2-yl)methyl)thiomorpholine-4-sulfonamide 1,1-dioxide] | 2141 | 23 | 49200
4 | O=S(=O)(N1CCN(C2COC2)CC1)N(Cc1ccc(-c2nnc(C(F)(F)F)o2)cc1F)c1ccccc1 [Compound 11527, N-(2-fluoro-4-(5-(trifluoromethyl)-1,3,4-oxadiazol-2-yl)benzyl)-4-(oxetan-3-yl)-N-phenylpiperazine-1-sulfonamide] | 627 | 76 | 47700
5 | O=S(=O)(N1CCN(C2COC2)CC1)N(Cc1ccc(-c2nnc(C(F)(F)F)o2)cn1)c1ccccc1 [Compound 11528, 4-(oxetan-3-yl)-N-phenyl-N-((5-(5-(trifluoromethyl)-1,3,4-oxadiazol-2-yl)pyridin-2-yl)methyl)piperazine-1-sulfonamide] | 527 | 79 | 41600
6 | O=S(=O)(N1CCN(C2CCC2)CC1)N(Cc1ccc(-c2nnc(C(F)F)o2)cc1)c1ccccc1 [Compound 11674, 4-cyclobutyl-N-(4-(5-(difluoromethyl)-1,3,4-oxadiazol-2-yl)benzyl)-N-phenylpiperazine-1-sulfonamide] | 751 | 133 | 
7 | CN(CCN1CCN(C2COC2)CC1)S(=O)(=O)N(Cc1ccc(-c2nnc(C(F)F)o2)cc1)c1ccccc1 [Compound 11704, 2-((4-(((N-methyl-N-(2-(4-(oxetan-3-yl)piperazin-1-yl)ethyl)sulfamoyl)(phenyl)amino)methyl))phenyl)-5-(difluoromethyl)-1,3,4-oxadiazole] | 429 | 233 | 
8 | CC(=O)N1CCN(CCN(C)S(=O)(=O)N(Cc2ccc(-c3nnc(C(F)F)o3)cc2)c2ccccc2)CC1 [Compound 11713, 2-((4-(((N-methyl-N-(2-(4-acetylpiperazin-1-yl)ethyl)sulfamoyl)(phenyl)amino)methyl))phenyl)-5-(difluoromethyl)-1,3,4-oxadiazole] | 142 | 705 | 
9 | CN(CCN1CCN(S(C)(=O)=O)CC1)S(=O)(=O)N(Cc1ccc(-c2nnc(C(F)F)o2)cc1)c1ccccc1 [Compound 11714, 2-((4-(((N-methyl-N-(2-(4-(methylsulfonyl)piperazin-1-yl)ethyl)sulfamoyl)(phenyl)amino)methyl))phenyl)-5-(difluoromethyl)-1,3,4-oxadiazole] | 616 | 162 | 
10 | Cl.O=S(=O)(N1CCC2(CC1)CNC2)N(Cc1ccc(-c2nnc(C(F)F)o2)cc1)c1ccccc1 [Compound 11787, N-(4-(5-(difluoromethyl)-1,3,4-oxadiazol-2-yl)benzyl)-N-phenyl-2,7-diazaspiro[3.5]nonane-7-sulfonamide Hydrochloride] | 1041 | 96 | 
11 | O=S(=O)(N1CCC2(CC1)CN(C1COC1)C2)N(Cc1ccc(-c2nnc(C(F)F)o2)cc1)c1ccccc1 [Compound 11788, N-(4-(5-(difluoromethyl)-1,3,4-oxadiazol-2-yl)benzyl)-2-(oxetan-3-yl)-N-phenyl-2,7-diazaspiro[3.5]nonane-7-sulfonamide] | 561 | 178 | 
12 | O=S(=O)(N1CCC2(CC1)CN(C1CCC1)C2)N(Cc1ccc(-c2nnc(C(F)F)o2)cc1)c1ccccc1 [Compound 11789, 2-cyclobutyl-N-(4-(5-(difluoromethyl)-1,3,4-oxadiazol-2-yl)benzyl)-N-phenyl-2,7-diazaspiro[3.5]nonane-7-sulfonamide] | 819 | 122 | 

Next, values leading:

Row | HDAC6 selectivity (fold) [1] [fold] | IC50 [1] [nM] | IC50 [2] [nM] | SMILES
13 | 2083 | 48 |  | Cc1cccc(N(Cc2ccc(-c3nnc(C(F)F)o3)cn2)S(=O)(=O)N2CCN(C)[C@H](C)C2)c1 [Compound 11823, (R)—N-((5-(5-(difluoromethyl)-1,3,4-oxadiazol-2-yl)pyridin-2-yl)methyl)-3,4-dimethyl-N-(m-tolyl)piperazine-1-sulfonamide]
14 | 2000 | 50 |  | Cc1cccc(N(Cc2ccc(-c3nnc(C(F)F)o3)cn2)S(=O)(=O)N2CCN(C3COC3)[C@H](C)C2)c1 [Compound 11824, (R)—N-((5-(5-(difluoromethyl)-1,3,4-oxadiazol-2-yl)pyridin-2-yl)methyl)-3-methyl-4-(oxetan-3-yl)-N-(m-tolyl)piperazine-1-sulfonamide]
15 | 2777 | 36 |  | C[C@@H]1CN(S(=O)(=O)N(Cc2ccc(-c3nnc(C(F)F)o3)cn2)c2cccc(Cl)c2)CCN1C [Compound 11825, (R)—N-(3-chlorophenyl)-N-((5-(5-(difluoromethyl)-1,3,4-oxadiazol-2-yl)pyridin-2-yl)methyl)-3,4-dimethylpiperazine-1-sulfonamide]
16 | 2439 | 41 |  | C[C@@H]1CN(S(=O)(=O)N(Cc2ccc(-c3nnc(C(F)F)o3)cn2)c2cccc(Cl)c2)CCN1C1COC1 [Compound 11826, (R)—N-(3-chlorophenyl)-N-((5-(5-(difluoromethyl)-1,3,4-oxadiazol-2-yl)pyridin-2-yl)methyl)-3-methyl-4-(oxetan-3-yl)piperazine-1-sulfonamide]
17 | 1923 | 52 |  | Cc1cccc(N(Cc2ccc(-c3nnc(C(F)F)o3)cn2)S(=O)(=O)N2CCN(C)[C@@H](C)C2)c1 [Compound 11827, (S)—N-((5-(5-(difluoromethyl)-1,3,4-oxadiazol-2-yl)pyridin-2-yl)methyl)-3,4-dimethyl-N-(m-tolyl)piperazine-1-sulfonamide]
18 | 2380 | 42 |  | Cc1cccc(N(Cc2ccc(-c3nnc(C(F)F)o3)cn2)S(=O)(=O)N2CCN(C3COC3)[C@@H](C)C2)c1 [Compound 11828, (S)—N-((5-(5-(difluoromethyl)-1,3,4-oxadiazol-2-yl)pyridin-2-yl)methyl)-3-methyl-4-(oxetan-3-yl)-N-(m-tolyl)piperazine-1-sulfonamide]
19 | 3448 | 29 |  | C[C@H]1CN(S(=O)(=O)N(Cc2ccc(-c3nnc(C(F)F)o3)cn2)c2cccc(Cl)c2)CCN1C [Compound 11829, (S)—N-(3-chlorophenyl)-N-((5-(5-(difluoromethyl)-1,3,4-oxadiazol-2-yl)pyridin-2-yl)methyl)-3,4-dimethylpiperazine-1-sulfonamide]
20 | 5882 | 17 |  | C[C@H]1CN(S(=O)(=O)N(Cc2ccc(-c3nnc(C(F)F)o3)cn2)c2cccc(Cl)c2)CCN1C1COC1 [Compound 11830, (S)—N-(3-chlorophenyl)-N-((5-(5-(difluoromethyl)-1,3,4-oxadiazol-2-yl)pyridin-2-yl)methyl)-3-methyl-4-(oxetan-3-yl)piperazine-1-sulfonamide]
21 | 2777 | 36 |  | O=S(=O)(N1CCN(C2CCC2)CC1)N(Cc1ccc(-c2nnc(C(F)F)o2)cn1)c1cccc(Cl)c1 [Compound 11831, N-(3-chlorophenyl)-4-cyclobutyl-N-((5-(5-(difluoromethyl)-1,3,4-oxadiazol-2-yl)pyridin-2-yl)methyl)piperazine-1-sulfonamide]
22 | 4761 | 21 |  | O=S(=O)(N1CCN(C2COC2)CC1)N(Cc1ccc(-c2nnc(C(F)F)o2)cn1)c1cccc(Cl)c1 [Compound 11832, N-(3-chlorophenyl)-N-((5-(5-(difluoromethyl)-1,3,4-oxadiazol-2-yl)pyridin-2-yl)methyl)-4-(oxetan-3-yl)piperazine-1-sulfonamide]
23 | 2040 | 49 |  | Cc1cccc(N(Cc2ccc(-c3nnc(C(F)F)o3)cn2)S(=O)(=O)N2CCN(C3COC3)CC2)c1 [Compound 11833, N-((5-(5-(difluoromethyl)-1,3,4-oxadiazol-2-yl)pyridin-2-yl)methyl)-4-(oxetan-3-yl)-N-(m-tolyl)piperazine-1-sulfonamide]
